Data reported in a melting point compilation (Tetko et al.; mined from patent text by program, amines drawn as free bases though some values may be those of a salt).

Row | Structure (SMILES) | melting point
1 | CCCC(Oc1ccc2c(-c3ccc(Cl)cc3)noc2c1)C(=O)O (stereo not given) | 170 °C
2 | Cc1ccc(C(=O)COc2ccc(F)cc2)cc1 | 95 to 96 °C
3 | O=C(Cn1c(-c2ccc(Cl)cc2)nc2cccnc21)NCc1ccccc1 | 200 °C
4 | Nc1ccc(OCCn2ccnc2)cc1 | 91 to 92 °C
5 | CC(C)Cn1c(CO)c(-c2ccccc2F)c2cc(OCc3ccccc3)ccc2c1=O | 191 to 192 °C
6 | CN1CCN(c2c(Br)cc3c4c(cccc24)C(=O)N(O)C3=O)CC1 | 184 to 186 °C
7 | O=c1[nH]c2c(cnn2-c2ccccc2)c2ccccc12 | 280 °C
8 | CCOC(=O)C(=O)NNC(=O)c1ccc(OCC)cc1 | 126 °C
9 | COc1cc2c(cc1OC)-c1c(C=O)c(C#N)cn1CC2 | 220 to 221 °C
10 | CCCNc1sc(C(N)=O)c2c1-c1c(cnn1C)CC2 | 207 to 208 °C
11 | COc1ccc(-n2c(-c3ccc(N(C)C)cc3)nnc2C(C)O)cc1 (stereo not given) | 190 °C
12 | CC1(C)C(=O)N(c2ccc(C#N)c(C(F)(F)F)c2)C(=S)N1CCCO | 149 to 150 °C
13 | Cc1c2c(nn1C)c(N)nc1ccccc12 | > 250 °C
14 | Cc1ccc(NC(=O)c2cc(Cl)ccc2NCC2CCN(C3CCCCC3)CC2)nc1 | 176 to 178 °C
15 | O=S(c1nc2ccccc2s1)N1CCOCC1 (stereo not given) | 93 to 94 °C
16 | CC(=O)c1nc2ccc(OCC(F)(F)C(F)F)cc2cc1O | 119 to 121 °C
17 | COc1ccccc1OCC1NC(C(=O)O)CS1 (stereo not given) | 149 to 150 °C
18 | CN(C(=O)c1cccs1)c1cccc2cc(-c3nccs3)[nH]c12 | 250 °C
19 | O=C1C(=Cc2ccc(O)c(CO)c2)Cc2ccccc21 | 194 to 195 °C
20 | CC(C)(C)OC(=O)CC(O)c1ccc(Cl)nc1NC(=O)C(C)(C)C (stereo not given) | 130 to 132 °C
21 | COc1cc(Nc2ncc(-c3ccccc3C(=O)O)o2)ccc1-c1cnco1 | 271 to 274 °C

Row | Structure (SMILES) | melting point
22 | COc1ccc(CC(=O)c2cccnc2)cc1OC | 188 to 191 °C
23 | CC(C)CC(=O)Nc1cccc(-c2ccnc3c(-c4cccc(CN5CCN(C)CC5)c4)cnn23)c1 | 135 to 138 °C
24 | CCC1Cc2ccc(C(C)C(=O)O)cc2C1=O (stereo not given) | 85 to 86 °C
25 | CCc1c(-c2ccc(O)cc2)c2c(CN(C)C)cc3cccc1n32 | 176 to 178 °C
26 | CCOC(=O)c1ccc(NC)c(C(O)c2ccccc2)c1 (stereo not given) | 132 to 135 °C
27 | Cc1cc(C)cc(Nc2nnc(Cc3ccncc3)c3ccccc23)c1 | 174 to 175 °C
28 | CC(C)c1nc(-c2cccs2)cc(-c2ccc(F)cc2)c1C=C(Br)Br | 107 to 108 °C
29 | Cc1ccc(S(=O)(=O)OCCC2COc3ccccc3C2)cc1 (stereo not given) | 91 to 93 °C
30 | CCCCn1c(=O)c2c(NC)n[nH]c2n(Cc2ccc(Cl)cc2)c1=O | 292 to 294 °C
31 | Nc1ncccc1-c1nc2ccc(-c3cn[nH]c3)nc2n1-c1ccc(CNC(=O)c2cccc(F)c2)cc1 | 267 to 269 °C
32 | COc1cc(C(=O)OCc2ccccc2)ccc1S(=O)(=O)Cl | 72 °C
33 | COC(=O)C(C)=Cc1cc(N=C=S)ccc1Cl | 60 to 61 °C
34 | CSCCC(CS)NC(=O)OC(C)(C)C (stereo not given) | 37 °C
35 | CCn1c(C(O)(c2cccc(C(F)(F)F)c2)c2cccc(C(F)(F)F)c2)nc(-c2ccncc2)c1-c1ccc(Cl)cc1 | 193 to 195 °C
36 | CC1=CC2c3cccc4[nH]c(SC(C)C)c(c34)CC2N(C)C1 (stereo not given) | 145 to 147 °C
37 | Cc1n[nH]c(C)c1CC1CC2c3cccc4[nH]cc(c34)CC2N(C)C1 (stereo not given) | > 300 °C
38 | CCCNC(=O)c1nc2n(n1)-c1ccc(Cl)cc1C(c1ccccc1Cl)=NC2 | 110 to 113 °C
39 | CCOC(=O)c1c[nH]c2c(cc(Cl)c3c(=O)c(C(=O)OCC)c[nH]c32)c1=O | 285 to 288 °C
40 | CCOC(=O)c1cn(CC)c2cc(C(=O)C=CN(C)C)c(F)cc2c1=O | 176 to 179 °C
41 | CCCCn1c(=O)c2c(NC)n[nH]c2n(CCOCc2ccccc2)c1=O | 214 to 216 °C
42 | Cc1nnc([C@H](Nc2ccc(C#N)c(Cl)c2C)[C@H](C)O)o1 | 181 to 183 °C

The next lines start with the values.

Row | melting point | Structure (SMILES)
43 | 177 °C | CC1Cc2cc(F)ccc2C1=Cc1ccc(S(C)(=O)=O)cc1 (stereo not given)
44 | 205 to 207 °C | N#Cc1cnc2cc(Br)ccc2c1Nc1ccc(Oc2ccccc2)cc1
45 | 95 °C | O=c1oc(=O)n(Cc2ccccc2)c2ccc(F)cc12
46 | 70 °C | CCCCCCCCCCC(C(=O)CCCCO)P(=O)(c1ccccc1)c1ccccc1 (stereo not given)
47 | 214 to 215 °C | COc1cccc(-c2cc(S(=O)(=O)c3ccc(N)cc3)cc(N3CCCC3)n2)c1
48 | 83 to 86 °C | OCC(CO)(OCc1ccccc1)c1ccccc1
49 | 160 to 165 °C | CN(C)C(=O)N(C)Cc1ccc(CCn2cnc3cc(-c4ccc(Cl)cc4)sc3c2=O)cc1
50 | 350 to 352 °C | Cc1nnc2nc(-c3ccccc3)c3cc([N+](=O)[O-])ccc3n12
51 | 46 to 47 °C | CCN(CC)C(=O)c1ccccc1-c1ccc(OC)cc1
52 | 210 °C | CCCCc1nnc2ccccc2c1Cc1ccc(-c2ccccc2C(=O)O)cc1
53 | 164 to 165 °C | COc1ccc(OC)c(C(=O)CC(CC(=O)c2ccc(Cl)cc2)c2cccc(C(=O)O)c2)c1 (stereo not given)
54 | 125 to 128 °C | OC(c1ccccc1)C1CCN(CCc2ccccc2)CC1 (stereo not given)
55 | 309 to 310 °C | NS(=O)(=O)c1ccc(C2(c3nc4cc(F)ccc4[nH]3)C=C(C(F)(F)F)NN2)cc1 (stereo not given)
56 | 119 to 120 °C | COCNC(=O)c1c(-c2ccc(Cl)cc2)nsc1-c1ccccc1
57 | 220 to 222 °C | Cc1ccn2c(=O)c(C(=O)NC3CCCC3)cnc2c1
58 | 280 to 281 °C | CC(=O)C1C(C(=O)c2ccc(Cl)cc2)CC2C3CCC4=CC(=O)CCC4(C)C3(F)C(O)CC21C (stereo not given)
59 | 167 to 168 °C | CCOC(=O)CCCCC1CC(n2c3ccccc3c3ccccc32)c2ccccc2N1C(=O)c1ccc(OC)cc1 (stereo not given)
60 | 126 to 128 °C | O=C(Cn1ccnc1)c1ccc(Cl)c(Cl)c1
61 | 257 °C | NNC(=O)Nc1cccc2c1C(=O)c1c-2n[nH]c1-c1ccc(N2CCNCC2)cc1
62 | 150 to 151 °C | O=C(O)C1(C(=O)O)CC(C2CCC2)C1

Row | melting point | Structure (SMILES)
63 | 119 to 120 °C | CCOC(=O)Cc1c(C)n(Cc2ccc(C(C)(C)C)cc2)c2ccc(OCc3csc(-c4ccccc4)n3)cc12
64 | 135 to 137 °C | COC(=O)C1=C(C)NC(C)=C(C(=O)OC)C1c1cc([N+](=O)[O-])ccc1OCCNCC(O)c1ccccc1 (stereo not given)
65 | 149 °C | O=C1[C@@H](N2C(=O)c3ccccc3C2=O)[C@@H](CCl)N1Cc1ccccc1 (relative stereo)
66 | 130 to 133 °C | O=c1c2cc(Oc3ccc(Cl)cc3)ccc2ncn1Cc1cccnc1
67 | 250 °C | Oc1ccc2ccccc2c1N=Nc1ccc2[nH]nnc2c1
68 | 194 to 196 °C | CCCCC1(O)CCN(CC23CC(c4ccccc42)c2ccccc23)CC1
69 | 200 to 202 °C | Cn1cc(C(=O)NCc2ccc(Cl)cc2)c(=O)c2cc(CN3CCOCC3)cc(C#Cc3ccncc3)c21
70 | 80 to 82 °C | CCOC(=O)COCc1nnc(S)s1
71 | 135 to 137 °C | COC(=O)c1ccc(OCC(=O)c2ccc3c(c2)C(C)(C)CCS3)cc1O
72 | 150 to 152 °C | CC(c1ccc(-c2ccccc2)s1)N(O)C(N)=O (stereo not given)
73 | 137 to 138 °C | CCOC(=O)C1=Cc2cc(I)ccc2NC1C(F)(F)F (stereo not given)
74 | 251 to 253 °C | COc1ccc([N+](=O)[O-])c2c1CCC(C(=O)Nc1ccc(N3CCOCC3)cc1)C2 (stereo not given)
75 | 262 to 265 °C | O=c1[nH]c2c(Cc3nnn[nH]3)c3ccccc3n2c2ccccc12
76 | 246 to 248 °C | Cc1cc(C(=O)N2Cc3cccn3Cc3ccccc32)ccc1[N+](=O)[O-]
77 | 176 to 177 °C | NC(=O)c1ccc(Sc2ccc(Cl)cc2)c(Cl)c1
78 | > 250 °C | O=C(O)c1cn([C@@H]2C[C@@H]2F)c2cc(N3C[C@@H]4NCCO[C@H]4C3)c(F)cc2c1=O
79 | 55 to 56 °C | CCCCCCCCCCCCCCOc1ccc(C(=O)C(Br)c2ccc([N+](=O)[O-])cc2)cc1 (stereo not given)
80 | 83 °C | Fc1cc(Cl)c(Br)c(Cl)c1
81 | 164 to 166 °C | COc1ccc(-c2ccc(C(C)=NOCCO)cc2)cc1
82 | 194 to 195 °C | C[C@@H](NC(=O)c1cnc(-c2ccc(Cl)cc2)s1)[C@](O)(Cn1cncn1)c1ccc(F)cc1F

Row | melting point | Structure (SMILES)
83 | 244 to 249 °C | Cc1nc2c(-c3cccc(N4CCC(N5CCCC5)CC4)c3)cnn2c(N)c1-c1ccc(F)cc1
84 | 68 to 77 °C | O=C(COC1Cc2cccc(O)c2CC1OCC(=O)N1CCOCC1)N1CCOCC1 (stereo not given)
85 | 57 to 58 °C | Clc1cc(Cl)c(Cl)nn1
86 | 101 to 103 °C | Clc1ccc(CCCN2CCc3cc(OC[C@H]4CO[C@](Cn5ccnc5)(c5ccc(Cl)cc5)O4)ccc3C2)cc1 (racemic)
87 | 231 to 235 °C | Cc1cc(Br)cnc1CCCCNC1=NS(=O)(=O)c2ccc(Cl)cc21
88 | 65 °C | C=C(C)C(=O)OCc1ccc(C#Cc2ccc(OC(=O)C(=C)C)cc2)cc1
89 | 236 to 237 °C | COc1nc(NC(=O)NS(=O)(=O)c2cccc3c2OS(=O)(=O)C(C)=C3)c(Cl)c(OC)n1
90 | 329 to 331 °C | Cc1ccc(C=C2CCc3c2oc2ccc(C(=O)O)cc2c3=O)c(C)c1
91 | 214 °C | O=C(Nc1ccc(F)cc1)NN(c1ccccc1)c1ccccc1
92 | 60 to 62 °C | COc1nc(C)c(C)cc1NC(=S)N1CCN(c2cc(F)cc(F)c2)CC1
93 | 282 to 283 °C | COc1ccc(Cn2c(=O)[nH]c(=O)c3[nH]c(C(C)C)nc32)cc1OC1CCCC1
94 | 115 to 120 °C | O=C(C=CC[C@H]1NC(=O)[C@@H]1N1C(=O)c2ccccc2C1=O)OCc1ccccc1
95 | 99 to 101 °C | C#CC(C)(C)OC(C)Oc1ccc(NC(=O)N(C)C)cc1Cl (stereo not given)
96 | 211 to 215 °C | CCSC1=CCC2C3CCC4=CC(=O)C=CC4(C)C3(F)C(OC(C)=O)CC12C (stereo not given)
97 | 97 to 99 °C | CSC1=Nc2ccccc2C2=NCC(Cn3ccnc3)N12 (stereo not given)
98 | 122 to 123 °C | CCN(c1ccc(Cl)cc1[N+](=O)[O-])S(=O)(=O)c1ccc(Cl)cc1
99 | 107 to 112 °C | CC1SC(=S)N(C)N=C1c1ncc(Cl)cc1F (stereo not given)
100 | 175 to 177 °C | CC1COc2cc(-c3ccco3)ccc2C1=NO (stereo not given)
